± gives the expanded uncertainty stated by the source.
Assays:
[1] = 101.33 kPa, Liquid; for viscosity: Falling or rolling sphere viscometry
[2] = xn = mol fraction of the nth substance listed; settings: 101.33 kPa, Liquid; for viscosity: Falling or rolling sphere viscometry

SMILES	viscosity ([2]; 293.15 K, x2 = 0) [mPa·s]	mass density ([2]; 293.15 K, x2 = 0) [kg/m3]	viscosity ([2]; 303.15 K, x2 = 0) [mPa·s]	mass density ([2]; 303.15 K, x2 = 0) [kg/m3]	viscosity ([2]; 313.15 K, x2 = 0) [mPa·s]	mass density ([2]; 313.15 K, x2 = 0) [kg/m3]	viscosity ([2]; 293.15 K, x1 = 1) [mPa·s]	mass density ([2]; 293.15 K, x1 = 1) [kg/m3]	viscosity ([2]; 303.15 K, x1 = 1) [mPa·s]	mass density ([2]; 303.15 K, x1 = 1) [kg/m3]	viscosity ([2]; 313.15 K, x1 = 1) [mPa·s]	mass density ([2]; 313.15 K, x1 = 1) [kg/m3]	other results
CCOC(=O)C(C)CC (configuration not stated) [ethyl 2-methylbutanoate]	–	–	–	–	–	–	–	–	–	–	–	–	mass density ([1]; 293.15 K): 869.73 ± 0.57 kg/m3; viscosity ([1]; 293.15 K): 0.831 ± 0.008 mPa·s; mass density ([1]; 303.15 K): 861.48 ± 0.58 kg/m3; viscosity ([1]; 303.15 K): 0.723 ± 0.007 mPa·s; mass density ([1]; 313.15 K): 853.41 ± 0.58 kg/m3; viscosity ([1]; 313.15 K): 0.635 ± 0.006 mPa·s
CO [methanol] + CCOC(=O)C(C)CC	0.577 ± 0.005	791.08 ± 0.63	0.512 ± 0.005	781.95 ± 0.64	0.447 ± 0.004	772.01 ± 0.65	–	–	–	–	–	–	–
CCCO [propan-1-ol] + CCCCCC(=O)OCC	2.188 ± 0.021	803.64 ± 0.61	1.713 ± 0.016	795.48 ± 0.62	1.378 ± 0.013	787.02 ± 0.63	–	–	–	–	–	–	–
CCOC(=O)C(C)CC (configuration not stated) [ethyl 2-methylbutanoate] + CCO	–	–	–	–	–	–	0.831 ± 0.008	869.73 ± 0.57	0.723 ± 0.007	861.48 ± 0.58	0.635 ± 0.006	853.41 ± 0.58	–
CCCCCC(=O)OCC [ethyl hexanoate]	–	–	–	–	–	–	–	–	–	–	–	–	mass density ([1]; 293.15 K): 879.01 ± 4 kg/m3; viscosity ([1]; 293.15 K): 0.816 ± 0.008 mPa·s; mass density ([1]; 303.15 K): 869.31 ± 4 kg/m3; viscosity ([1]; 303.15 K): 0.704 ± 0.007 mPa·s; mass density ([1]; 313.15 K): 863.28 ± 4 kg/m3; viscosity ([1]; 313.15 K): 0.614 ± 0.006 mPa·s
CCCO [propan-1-ol] + CCOC(=O)C(C)CC	2.188 ± 0.021	803.64 ± 0.61	1.713 ± 0.016	795.48 ± 0.62	1.378 ± 0.013	787.02 ± 0.63	–	–	–	–	–	–	–
CCOC(=O)C(C)CC (configuration not stated) [ethyl 2-methylbutanoate] + CO	–	–	–	–	–	–	0.831 ± 0.008	869.73 ± 0.57	0.723 ± 0.007	861.48 ± 0.58	0.635 ± 0.006	853.41 ± 0.58	–
CCO [ethanol] + CCOC(=O)C(C)CC	1.16 ± 0.011	788.24 ± 0.62	0.968 ± 0.009	780.73 ± 0.63	0.81 ± 0.008	771.98 ± 0.64	–	–	–	–	–	–	–
CO [methanol] + CCCCCC(=O)OCC	0.577 ± 0.005	791.08 ± 0.63	0.512 ± 0.005	781.95 ± 0.64	0.447 ± 0.004	772.01 ± 0.65	–	–	–	–	–	–	–
CCO [ethanol]	–	–	–	–	–	–	–	–	–	–	–	–	mass density ([1]; 293.15 K): 788.24 ± 0.62 kg/m3; viscosity ([1]; 293.15 K): 1.16 ± 0.011 mPa·s; mass density ([1]; 303.15 K): 780.73 ± 0.63 kg/m3; viscosity ([1]; 303.15 K): 0.968 ± 0.009 mPa·s; mass density ([1]; 313.15 K): 771.98 ± 0.64 kg/m3; viscosity ([1]; 313.15 K): 0.81 ± 0.008 mPa·s
CO [methanol]	–	–	–	–	–	–	–	–	–	–	–	–	mass density ([1]; 293.15 K): 791.08 ± 0.63 kg/m3; viscosity ([1]; 293.15 K): 0.577 ± 0.005 mPa·s; mass density ([1]; 303.15 K): 781.95 ± 0.64 kg/m3; viscosity ([1]; 303.15 K): 0.512 ± 0.005 mPa·s; mass density ([1]; 313.15 K): 772.01 ± 0.65 kg/m3; viscosity ([1]; 313.15 K): 0.447 ± 0.004 mPa·s
CCCO [propan-1-ol]	–	–	–	–	–	–	–	–	–	–	–	–	mass density ([1]; 293.15 K): 803.64 ± 0.61 kg/m3; viscosity ([1]; 293.15 K): 2.188 ± 0.021 mPa·s; mass density ([1]; 303.15 K): 795.48 ± 0.62 kg/m3; viscosity ([1]; 303.15 K): 1.713 ± 0.016 mPa·s; mass density ([1]; 313.15 K): 787.02 ± 0.63 kg/m3; viscosity ([1]; 313.15 K): 1.378 ± 0.013 mPa·s
CCO [ethanol] + CCCCCC(=O)OCC	1.16 ± 0.011	788.24 ± 0.62	0.968 ± 0.009	780.73 ± 0.63	0.81 ± 0.008	771.98 ± 0.64	–	–	–	–	–	–	–
CCCCCC(=O)OCC [ethyl hexanoate] + CCO	–	–	–	–	–	–	0.816 ± 0.008	879.01 ± 0.58	0.704 ± 0.007	869.31 ± 0.57	0.614 ± 0.006	863.28 ± 0.56	–
CCCCCC(=O)OCC [ethyl hexanoate] + CCCO	–	–	–	–	–	–	0.816 ± 0.008	879.01 ± 0.58	0.704 ± 0.007	869.31 ± 0.57	0.614 ± 0.006	863.28 ± 0.56	–
CCCCCC(=O)OCC [ethyl hexanoate] + CO	–	–	–	–	–	–	0.816 ± 0.008	879.01 ± 0.58	0.704 ± 0.007	869.31 ± 0.57	0.614 ± 0.006	863.28 ± 0.56	–
CCOC(=O)C(C)CC (configuration not stated) [ethyl 2-methylbutanoate] + CCCO	–	–	–	–	–	–	0.831 ± 0.008	869.73 ± 0.57	0.723 ± 0.007	861.48 ± 0.58	0.635 ± 0.006	853.41 ± 0.58	–
